Assay results reported in PubChem BioAssay AID2060483 (Molecular Pharmacology Branch, DTP, NCI, 2025).

Test system: K24384-001-R-PDC complex spheroids, viability
Assay: Anticancer human tumor K24384-001-R-PDC patient-derived pancreatic adenocarcinoma cell line growth inhibition [GQUAD]
Settings: for IC50: curve of first compound; for viability, T/C: stronger effect = lower value
Source text: DNA G-quadruplex Stabilizer Agents in Combinations in Complex Spheroids
A high-throughput screen of multi-cell type tumor spheroids was designed to identify active combinations of DNA G-quadruplex stabilizer agents and targeted small molecules. Complex spheroids include a stromal component modeled by human endothelial cells (HUVEC) and fibroblasts modeled by human mesenchymal stem cells (MSCs). The concentration ranges selected for each drug and investigational agent were based upon clinically achievable concentrations if the clinical Cmax of the agent was known.
Compounds. The drugs and investigational agents: pidnarulex (CX-5461; NSC782164), APTO-253 (NSC789042), BRACO-19 (NSC847499), peposertib (NSC802822), ceralasertib (NSC780249), elimusertib (NSC800525), camonsertib (NSC841442), AZD-1390 (NSC803789), olaparib (NSC753686), talazoparib (NSC767125), ART-558 (NSC835418), sotorasib (NSC818433), MRTX-1133 (NSC836407), SN-38 (NSC673596), topotecan (NSC609699), etoposide (NSC141540), doxorubicin (NSC123127), gemcitabine (NSC613327), 5-fluorouracil (NSC19893), paclitaxel (NSC125973), vemurafenib (NSC761431), panobinostat (NSC761190), R-306465 (JNJ-16241199; NSC773264), adavosertib (NSC754352), TP-3654 (NSC805149), carboplatin (NSC241240), KSQ-4279 (NSC840948), and staurosporine (NSC755774) were obtained from the National Cancer Institute (NCI) Developmental Therapeutics Program Chemical Repository (34). The FDA-approved anticancer drug set is available from the NCI Developmental Therapeutics Program. […] The stock solutions were prepared in dimethyl sulfoxide (DMSO, Sigma-Aldrich, St. Louis, MO, cat. D2650) at 800-fold the tested concentration and stored at -70 degrees C prior to their use. All drugs and investigational agents were tested over a range starting from a high concentration at or near the clinical Cmax and decreasing in half-log increments. If the clinical Cmax for an agent had not been determined, the highest concentration tested was 10 microM.
2.3 Cell Culture. All cells were maintained in an incubator at 37 degrees C and 5% CO2 with 95% humidity. The PDC lines were cultured according to standard operating procedures established by the NCI PDMR. All PDCs were thawed and cultured in Matrigel-coated flasks prepared with a working solution of 1X Ham's F-12 nutrient mix, without supplementation (Invitrogen, cat. 11765054), 100 U/mL penicillin-streptomycin (Invitrogen, cat. 15140122), and 2.5% Matrigel (Corning Inc., cat. 354248) for the first three passages. The 857933-349-R-J2-PDC line was cultured in 6C/Colon 1B media, which includes advanced DMEM/F-12 (Thermo Fisher Scientific, cat. 12634028), 10 mM HEPES (Thermo Fisher Scientific, cat. 15630080), 1X GlutaMAX supplement (Thermo Fisher Scientific, cat. 35050061), 0.1 mg/mL primocin (InvivoGen, cat. ant-pm-2), 10% defined fetal bovine serum, heat inactivated (HyClone Laboratories Inc., cat. SH30070.03HI), 50% L-WRN conditioned media (ATCC, cat. CRL-3276), 1.25 mM N-Acetyl-L-cysteine (Sigma-Aldrich, cat. A9165), 10 mM nicotinamide (Sigma-Aldrich, cat. N0636), 1X B-27 supplement (Thermo Fisher Scientific, cat. 17504044), 1X N-2 supplement (Thermo Fisher Scientific, cat. 17502048), 10 microM Y-27632 dihydrochloride (Tocris Bioscience, cat. 1254), and 50 ng/mL human EGF recombinant protein (Thermo Fisher Scientific, cat. PHG0311). The 485176-168-R4-J1-PDC line was cultured in Panc media, which includes all 6C/Colon 1B media components plus 100 ng/mL human FGF-10 (Thermo Fisher Scientific, cat. 100-26), 500 nM SB-431542 (Selleckchem, cat. S1067), and gastrin (Tocris, cat. 3006).
[…]
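Further: spheroids exposed to compounds for seven days.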

COc1ncnc(C2CC2)c1-c1ncc2cnn(Cc3ccc(-c4nc(C(F)(F)F)cn4C(C)C)cc3)c2n1 + Cc1cnc(CNC(=O)c2c(=O)c3ccc(N4CCCN(C)CC4)nc3n3c2sc2ccccc23)cn1
IC50 (second compound 0.0316 µM): > 10000 nM | IC50 (second compound 0.1 µM): > 10000 nM | IC50 (second compound 0.316 µM): < 31.6 nM | IC50 (second compound 1 µM): < 31.6 nM | IC50 (second compound 3.16 µM): < 31.6 nM | IC50 (second compound 10 µM): < 31.6 nM | viability, T/C (second compound 0.0316 µM, first compound 0.0316 µM): 85.9% | viability, T/C (second compound 0.0316 µM, first compound 0.1 µM): 90.3% | viability, T/C (second compound 0.0316 µM, first compound 0.316 µM): 78% | viability, T/C (second compound 0.0316 µM, first compound 1 µM): 84.6% | viability, T/C (second compound 0.0316 µM, first compound 3.16 µM): 69.1% | viability, T/C (second compound 0.0316 µM, first compound 10 µM): 94.5% | viability, T/C (second compound 0.1 µM, first compound 0.0316 µM): 46.1% | viability, T/C (second compound 0.1 µM, first compound 0.1 µM): 71% | viability, T/C (second compound 0.1 µM, first compound 0.316 µM): 71.6% | viability, T/C (second compound 0.1 µM, first compound 1 µM): 52.2% | viability, T/C (second compound 0.1 µM, first compound 3.16 µM): 57.4% | viability, T/C (second compound 0.1 µM, first compound 10 µM): 79.5% | viability, T/C (second compound 0.316 µM, first compound 0.0316 µM): 44.5% | viability, T/C (second compound 0.316 µM, first compound 0.1 µM): 43.5% | viability, T/C (second compound 0.316 µM, first compound 0.316 µM): 43.3% | viability, T/C (second compound 0.316 µM, first compound 1 µM): 43.2% | viability, T/C (second compound 0.316 µM, first compound 3.16 µM): 65.1% | viability, T/C (second compound 0.316 µM, first compound 10 µM): 46.4% | viability, T/C (second compound 1 µM, first compound 0.0316 µM): 43.6% | viability, T/C (second compound 1 µM, first compound 0.1 µM): 46.7% | viability, T/C (second compound 1 µM, first compound 0.316 µM): 41% | viability, T/C (second compound 1 µM, first compound 1 µM): 44.7% | viability, T/C (second compound 1 µM, first compound 3.16 µM): 42.9% | viability, T/C (second compound 1 µM, first compound 10 µM): 36.1% | viability, T/C (second compound 3.16 µM, first compound 0.0316 µM): 31.5% | viability, T/C (second compound 3.16 µM, first compound 0.1 µM): 34% | viability, T/C (second compound 3.16 µM, first compound 0.316 µM): 33% | viability, T/C (second compound 3.16 µM, first compound 1 µM): 42.1% | viability, T/C (second compound 3.16 µM, first compound 3.16 µM): 39.1% | viability, T/C (second compound 3.16 µM, first compound 10 µM): 29% | viability, T/C (second compound 10 µM, first compound 0.0316 µM): 24% | viability, T/C (second compound 10 µM, first compound 0.1 µM): 13.7% | viability, T/C (second compound 10 µM, first compound 0.316 µM): 23.1% | viability, T/C (second compound 10 µM, first compound 1 µM): 20.8% | viability, T/C (second compound 10 µM, first compound 3.16 µM): 17.1% | viability, T/C (second compound 10 µM, first compound 10 µM): 0.33%
